SMILES strings stand for the structures.

The source of these data is patent US9278954B2, “Pyrrolidine derivatives, pharmaceutical compositions and uses thereof” (Boehringer Ingelheim International GmbH, priority 2013, dated 2016).

human ACC2, sequence (O00763 129-2458): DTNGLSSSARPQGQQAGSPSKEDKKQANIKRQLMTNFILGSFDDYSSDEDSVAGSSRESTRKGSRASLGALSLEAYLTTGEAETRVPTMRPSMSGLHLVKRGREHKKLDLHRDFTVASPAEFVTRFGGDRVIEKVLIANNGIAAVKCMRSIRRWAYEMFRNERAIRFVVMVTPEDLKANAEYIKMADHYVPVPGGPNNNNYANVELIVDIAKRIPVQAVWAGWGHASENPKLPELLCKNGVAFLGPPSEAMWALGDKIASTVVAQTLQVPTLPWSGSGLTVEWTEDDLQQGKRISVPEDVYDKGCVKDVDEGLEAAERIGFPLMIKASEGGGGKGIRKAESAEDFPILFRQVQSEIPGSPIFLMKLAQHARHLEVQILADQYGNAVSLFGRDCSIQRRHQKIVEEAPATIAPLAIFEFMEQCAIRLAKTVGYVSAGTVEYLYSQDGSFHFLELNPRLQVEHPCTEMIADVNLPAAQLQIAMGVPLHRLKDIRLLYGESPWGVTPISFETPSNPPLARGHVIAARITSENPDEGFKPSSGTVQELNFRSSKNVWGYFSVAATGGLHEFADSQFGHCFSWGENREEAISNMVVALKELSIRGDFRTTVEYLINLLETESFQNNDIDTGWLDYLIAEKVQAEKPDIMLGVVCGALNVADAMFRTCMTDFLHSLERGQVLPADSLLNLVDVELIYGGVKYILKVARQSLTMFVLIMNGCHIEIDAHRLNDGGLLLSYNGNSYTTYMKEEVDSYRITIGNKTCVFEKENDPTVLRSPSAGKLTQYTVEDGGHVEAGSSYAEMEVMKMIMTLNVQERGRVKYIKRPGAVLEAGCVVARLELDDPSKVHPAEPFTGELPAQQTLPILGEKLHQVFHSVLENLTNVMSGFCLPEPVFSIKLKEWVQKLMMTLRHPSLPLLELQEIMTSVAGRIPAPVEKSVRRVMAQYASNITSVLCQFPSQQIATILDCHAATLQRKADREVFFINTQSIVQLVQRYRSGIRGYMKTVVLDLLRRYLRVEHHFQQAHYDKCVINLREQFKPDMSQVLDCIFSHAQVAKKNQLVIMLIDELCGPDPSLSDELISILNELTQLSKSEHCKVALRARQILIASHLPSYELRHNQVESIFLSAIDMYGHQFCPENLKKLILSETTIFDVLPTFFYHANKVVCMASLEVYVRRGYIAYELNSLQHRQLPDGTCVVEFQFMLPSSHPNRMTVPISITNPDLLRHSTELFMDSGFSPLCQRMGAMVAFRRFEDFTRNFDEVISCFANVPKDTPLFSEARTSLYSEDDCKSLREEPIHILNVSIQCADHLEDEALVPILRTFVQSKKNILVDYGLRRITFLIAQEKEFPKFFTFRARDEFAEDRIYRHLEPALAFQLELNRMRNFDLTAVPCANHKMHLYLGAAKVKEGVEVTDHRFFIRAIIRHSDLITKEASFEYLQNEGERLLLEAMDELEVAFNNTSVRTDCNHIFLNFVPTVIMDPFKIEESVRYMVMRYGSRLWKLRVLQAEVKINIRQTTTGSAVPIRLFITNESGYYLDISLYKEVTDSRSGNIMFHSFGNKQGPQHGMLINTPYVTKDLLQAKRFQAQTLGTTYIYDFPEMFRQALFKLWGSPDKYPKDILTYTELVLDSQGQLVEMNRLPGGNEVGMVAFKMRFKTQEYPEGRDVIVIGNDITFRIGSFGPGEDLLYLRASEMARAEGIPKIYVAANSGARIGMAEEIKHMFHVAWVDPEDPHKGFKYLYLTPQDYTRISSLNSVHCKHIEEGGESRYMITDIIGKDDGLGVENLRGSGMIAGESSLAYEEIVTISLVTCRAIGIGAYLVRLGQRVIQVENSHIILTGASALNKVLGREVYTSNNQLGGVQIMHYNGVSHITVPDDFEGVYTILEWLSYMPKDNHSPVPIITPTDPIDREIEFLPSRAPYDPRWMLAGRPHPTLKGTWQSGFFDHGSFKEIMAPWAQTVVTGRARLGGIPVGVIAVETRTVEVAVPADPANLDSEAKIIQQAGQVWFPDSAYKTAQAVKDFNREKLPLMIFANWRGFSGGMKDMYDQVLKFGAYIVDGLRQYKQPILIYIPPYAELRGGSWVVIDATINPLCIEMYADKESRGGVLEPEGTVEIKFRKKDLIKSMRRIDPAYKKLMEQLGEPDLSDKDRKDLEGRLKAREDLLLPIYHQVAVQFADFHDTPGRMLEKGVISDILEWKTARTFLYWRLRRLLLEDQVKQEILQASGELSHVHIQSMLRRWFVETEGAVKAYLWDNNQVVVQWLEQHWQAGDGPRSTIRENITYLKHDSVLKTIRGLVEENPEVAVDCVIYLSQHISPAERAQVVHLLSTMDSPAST

This assay concerns the target human ACC2 (Homo sapiens (Human), UniProt O00763). Nature of the assay: ACC2 assay (spectrophotometric 384 well assay, NADH-linked kinetic method). The format is biochemical. As to conditions: hACC2 construct lacking the 128 N-terminal amino acids; 25° C., 340 nm over 15 minutes. Here is the method: Spectrophotometric 384 Well Assay
Malonyl CoA formation by acetyl CoA carboxylases is stoichometrically linked to the consumption of ATP. ACC2 activity is measured in a NADH-linked kinetic method measuring ADP generated during the ACC reaction using a coupled lactate dehydrogenase/pyruvate kinase reaction.
The protein is then expressed in insect cells using a baculoviral expression system. Protein purification is performed by anion exchange.
All compounds are dissolved in dimethyl sulfoxide (DMSO) to a concentration of 10 mM.
The enzymatic reaction is then started by addition of a mixture of NADH, acetyl
Coenzyme A (both […].) and ATP (500 uM f.c.). The decrease of the optical density (slope S) is then determined at 25° C. at a wavelength of 340 nm over 15 minutes in a spectrophotometric reader.
Each assay microtiter plate contains wells with vehicle instead of compound as controls for the non-inhibited enzyme (100% CTL; ‘HIGH’) and wells without acetyl-CoA as controls for non-specific NADH degradation (0% CTL; ‘LOW’).
Consider `CC(CC#N)NC(=O)C(C)c1ccc(O[C@@H]2CCN(c3ccc(OCC4CC4(F)F)cn3)C2)cc1` (some centres unmarked) [Example 1.84], for which half-maximal inhibition (IC50) required 1.12 µM. For `CC(C(=O)NC1CC1C)c1ccc(O[C@@H]2CCN(c3ncnc(OCC(C)(C)O)c3Cl)C2)cc1` (single isomer, unassigned) [6.4 isomer 3] the value was 0.127 µM; for `CCCNC(=O)C(C)c1ccc(O[C@@H]2CCN(c3ncnc(OCC(C)(F)F)c3F)C2)cc1` (some centres unmarked) [Example 1.75], 0.818 µM; for `CCNC(=O)C(C)c1ccc(O[C@@H]2CCN(c3ccc(OCC)cc3F)C2)cc1` (some centres unmarked) [Example 4.2], 0.575 µM.

For `CCCNc1nccc(N2CC[C@@H](Oc3ccc(C(C)C(=O)NCC4CC(F)(F)C4)cc3)C2)c1F` (some centres unmarked) [Example 1.92], the IC50 amounted to 3.7 µM. `CCNC(=O)C(C)c1ccc(O[C@@H]2CCN(c3cccc(C)c3)C2)cc1` (some centres unmarked) [Example 7.16] showed an IC50 of 0.41 µM. The compound `CC(C(=O)NC1CC1C)c1ccc(O[C@@H]2CCN(c3ncnc(OCC(C)(F)F)c3F)C2)cc1` (some centres unmarked) [Example 1.14] had an IC50 of 0.244 µM. Compared with the last compound, the IC50 is about 1.7-fold lower.

For `CC(C(=O)NC1CC1C)c1ccc(O[C@@H]2CCN(c3nc(N(C)C)ncc3F)C2)cc1` (some centres unmarked) [Example 1.9], the IC50 was 0.195 µM. This IC50 and that of the compound before are within 1.5-fold of each other. `CC(C(=O)NC1CCC1)c1ccc(O[C@@H]2CCN(c3ncnc(OCC(C)(C)O)c3Cl)C2)cc1` (some centres unmarked) [Example 1.50] yielded an IC50 of 0.501 µM. `CC(C(=O)NCC1COC1)c1ccc(O[C@@H]2CCN(c3ncnc(OCC(C)(C)O)c3Cl)C2)cc1` (some centres unmarked) [Example 1.85] had a 50% inhibitory concentration (IC50) of 1.23 µM. In turn, `CC(C(=O)NC1CC1C)c1ccc(O[C@@H]2CCN(c3ncnc(OCC(C)(F)F)c3F)C2)cc1` (some centres unmarked) [Example 1.22] came in with a half-inhibitory concentration (IC50) of 0.311 µM. Compound `CCNC(=O)C(C)c1ccc(O[C@@H]2CCN(c3cccc(C(F)(F)F)c3)C2)cc1` (some centres unmarked) [Example 7.4] came in with an IC50 of 0.224 µM. For `CC(C(=O)NC1CC1C)c1ccc(O[C@@H]2CCN(c3ccc(OCC4CC4(F)F)cn3)C2)cc1` (some centres unmarked) [Example 1.10] the value was 0.205 µM; for `CCNC(=O)C(C)c1ccc(O[C@@H]2CCN(c3ccnc(N(CC)CC)n3)C2)cc1` (stereo partly drawn) [Example 2.1, (R)-2-(4-[1-(2-Diethylamino-pyrimidin-4-yl)-pyrrolidin-3-lyoxy]-phenyl)-N-ethyl-propionamide], 0.095 µM. The compound `CC(C(=O)NC1CCC1)c1ccc(O[C@@H]2CCN(c3ccc(OCC4CC4(F)F)cn3)C2)cc1` (some centres unmarked) [Example 1.82] registered an IC50 of 0.94 µM. `CC(C)NC(=O)C(C)c1ccc(O[C@@H]2CCN(c3ncnc(OCC(C)(F)F)c3F)C2)cc1` (some centres unmarked) [Example 1.80] returned an IC50 of 0.907 µM. `CC(C(=O)NCCF)c1ccc(O[C@@H]2CCN(c3nc(N(C)C)ncc3F)C2)cc1` (some centres unmarked) [Example 1.51] returned an IC50 of 0.512 µM. Against the preceding compound, the IC50 is about 1.8-fold lower. With `CCNC(=O)C(C)c1ccc(O[C@@H]2CCN(c3ccc(OC4CC4)cc3C)C2)cc1` (some centres unmarked) [Example 7.29] the figure was 0.6 µM; with `CC(C)CNC(=O)C(C)c1ccc(O[C@@H]2CCN(c3ccc(OCC4CC4(F)F)cn3)C2)cc1` (some centres unmarked) [Example 1.79], 0.907 µM; with `CNC(=O)C(C)c1ccc(O[C@@H]2CCN(c3nc(N(C)C)ncc3F)C2)cc1` (some centres unmarked) [Example 1.56], 0.579 µM.

Take `CCCNc1nccc(N2CC[C@@H](Oc3ccc(C(C)C(=O)NC4CC4)cc3)C2)c1F` (some centres unmarked) [Example 1.2]: it took 0.061 µM to reach half-maximal inhibition (IC50).

Compound `CC(C(=O)NC1CC1C)c1ccc(O[C@@H]2CCN(c3ncnc(OCC(C)(C)O)c3Cl)C2)cc1` (single isomer, unassigned) [6.4 isomer 1] came in with an IC50 of 0.121 µM. The compound `C=CCNC(=O)C(C)c1ccc(O[C@@H]2CCN(c3ncnc(OCC(C)(F)F)c3F)C2)cc1` (some centres unmarked) [Example 1.45] had an IC50 of 0.463 µM. In turn, `CC(C(=O)NCCF)c1ccc(O[C@@H]2CCN(c3ncnc(OCC(C)(F)F)c3F)C2)cc1` (some centres unmarked) [Example 1.55] came in with an IC50 of 0.573 µM. In turn, `CCNC(=O)C(C)c1ccc(O[C@@H]2CCN(c3ncnc(OCC(C)(F)F)c3F)C2)cc1` (some centres unmarked) [Example 1.30] returned an IC50 of 0.378 µM. Turning to `CC(C(=O)NC1CC1C)c1ccc(O[C@@H]2CCN(c3ccc(OCC4CC4(F)F)cn3)C2)cc1` (some centres unmarked) [Example 1.12], it took 0.22 µM to reach half-maximal inhibition (IC50). Compound `CC(C(=O)NCC(F)F)c1ccc(O[C@@H]2CCN(c3ccc(OCC4CC4(F)F)cn3)C2)cc1` (some centres unmarked) [Example 1.15] displayed an IC50 of 0.263 µM. As for `CCNC(=O)C(C)c1ccc(O[C@@H]2CCN(c3ccc(OCC4CC4(F)F)cn3)C2)cc1` (some centres unmarked) [Example 7.3], the half-inhibitory concentration (IC50) is 0.19 µM. `CCCNc1ncnc(N2CC[C@@H](Oc3ccc(C(C)C(=O)NCC)cc3)C2)c1F` (some centres unmarked) [Example 3.12] returned an IC50 of 1.03 µM.

`C#CCNC(=O)C(C)c1ccc(O[C@@H]2CCN(c3ncnc(OCC(C)(F)F)c3F)C2)cc1` (some centres unmarked) [Example 1.42] came in with an IC50 of 0.441 µM. As for `CC(C(=O)NC1COC1)c1ccc(O[C@@H]2CCN(c3nc(N(C)C)ncc3F)C2)cc1` (some centres unmarked) [Example 1.68], the midpoint of inhibition, the IC50, lay at 0.724 µM. `CC(C(=O)NCC(F)F)c1ccc(O[C@@H]2CCN(c3ncnc(OCC(C)(C)O)c3Cl)C2)cc1` (some centres unmarked) [Example 1.36] returned an IC50 of 0.413 µM.
